Test results from ChEMBL document CHEMBL3507680, “University of Dundee, Gates Library screen for HepG2 cell viability”.

Assay: Human HepG2 cell viability assay in 384 well format
Assay type: toxicity, cell-based
Design: dose 125 nL, time 70.5 hour; concentration not given beside the values
Details: HepG2 cells, read-out: Inhibition

Point of comparison: `CC1(C)CC(CN2CCC3(CCC(=O)N(C4CCC4)C3)CC2)CCO1` (stereo not drawn), cytotoxicity at 70.5 h -9.04%. Against it:
- COc1cc(NC(=O)NCc2cc(C)oc2C)cc(OC)c1 — higher, -5.36%
- COCC1c2c(cnn2C)CCN1Cc1cccc(C)c1 (stereo not drawn) — higher, -1.18%
- Cn1cnc(C(=O)N2CC3(CCN(S(=O)(=O)c4ccccc4)C3)C2)c1 — higher, -7.62%
- O=C([C@@H]1CCO[C@@H]2CCN(CC3CCOCC3)C[C@H]21)N1CCCO1 — higher, 46.7%
- Cc1cc(N2CCN(CCO)CC2)nc(-c2ccncc2)n1 — higher, 0.374%
- N#Cc1ccccc1OCCN1CCN(C(=O)C2CCCC2)CC1 — higher, 7.87%
- Cc1cccc(COc2ccc(C(C)N)cc2)c1 (stereo not drawn) — higher, -4.64%
- CCC1(CC)CC(=O)N(CC(O)c2ccc(Cl)cc2)C1=O (stereo not drawn) — higher, -4.91%
- CCn1c(N)nc2cc(C(=O)NCCCc3ccccn3)cnc21 — lower, -15%
- CS(=O)(=O)Cc1ccc(OCc2ccc(F)cc2)cc1 — higher, 19.8%
- CCC1CN(C(=O)c2ccccc2N2CCCC2)CCN1C(C)C (stereo not drawn) — higher, -4.31%
- O=S(=O)(CCN1CCCCC1Cn1cncn1)c1ccccc1 (stereo not drawn) — higher, 27.2%
- Cc1cccnc1N1CC2(CCN(Cc3cnn(C)c3)C2)C1 — lower, -10.7%
- CCn1cc(Br)c(C(=O)NCc2cnn(C)c2)n1 — lower, -13.6%
- Cc1[nH]c(-c2ccccc2)nc1C(=O)N1CCc2[nH]cnc2C1C(=O)O (stereo not drawn) — higher, -8.84%
- Cc1cc(C(=O)N(C)C(C)CC(C)C)on1 (stereo not drawn) — higher, -1.57%
- CC(C)N(C)Cc1cn2c(n1)CN(C(=O)Cc1ccccc1)CC2 — higher, -2.24%
- COc1ccc(N2CCN(C(=O)CCc3n[nH]c(C)n3)CC2=O)cc1 — higher, 15.6%
- CCOc1ccccc1NC(=O)CN(C)Cc1ccccc1Cl — higher, -0.249%
- O=C(NCc1nnc2n1CCC2)c1cn(-c2ccccc2)nn1 — higher, -5.59%
- CN1CCN(C2CCN(CCCOc3ccc(F)cc3)CC2)C1=O — higher, 19.6%
- CN(C)CC1(O)CCCN(C(=O)Cc2ccc(Cl)c(Cl)c2)C1 (stereo not drawn) — higher, -2.73%
- CN(Cc1ccc(F)cc1)[C@@H]1CN(S(=O)(=O)N(C)C)C[C@H]1O — higher, -0.678%
- Cn1ccc(C(=O)NCc2ccc(CN3CCCCC3)cc2)cc1=O — lower, -12%
- CSCCCNc1ncnc2cccc(F)c12 — higher, 23.2%
- C[C@H](CCO)NS(=O)(=O)c1ccc(Br)cn1 — higher, -6.95%
- Cc1ccccc1-c1cncc(C2CCN(Cc3cnn(C)c3)CC2)n1 — lower, -9.46%
- CCN1CCN(C(=O)COc2ccc(CN(C)S(C)(=O)=O)cc2)CC1 — higher, -3.87%
- COCCN1CCC(Nc2ccc(C#N)cc2F)CC1 — lower, -13.7%
- O=c1ccc2c([nH]1)CCC(NCc1ccncc1)C2 (stereo not drawn) — higher, -2.51%
- COc1ccc(OC)c(-n2nnnc2SCC2CCCN(C)C2)c1 (stereo not drawn) — higher, -3.08%
- COCCN1CC(C(=O)NCc2ccc(C)s2)CC1=O (stereo not drawn) — higher, -1.18%
- Cc1nc(NC(=O)NC2CC(=O)N(C(C)C)C2)nn1C(C)C (stereo not drawn) — higher, -0.942%
- Cc1c(C2CCOC(C)(C)C2)nc(N)c(C#N)c1-c1ccc(O)cc1 (stereo not drawn) — higher, 11.3%
- COc1cccc(CC2CN(C3CCCCC3)CCO2)c1 (stereo not drawn) — higher, 25.1%
- CC(NCc1cnc(C2CCC2)s1)c1cccc(-n2cccn2)c1 (stereo not drawn) — higher, 16.3%
- CNC(=O)C1(c2cnccn2)CCCN1C(=O)c1cccnc1OC (stereo not drawn) — lower, -9.36%
- Cn1cc(CN2CCC[C@]3(C(=O)O)CN(c4ncccn4)C[C@@H]3C2)cn1 — lower, -12%
- CSc1ncccc1C(=O)NCCC(O)c1ccco1 (stereo not drawn) — higher, 1.61%
- O=C(CN1CCCC1Cn1cccn1)NC1CCN(C2CC2)CC1 (stereo not drawn) — higher, -2.29%
- c1cc(C2CCCN2CC2CC2)n[nH]1 (stereo not drawn) — lower, -9.13%
- Cc1ccc(-c2noc(CN3CCC(N4CCNC4=O)CC3)n2)cc1 — higher, 20.8%
- O=S(=O)(CC1CCCCO1)Nc1c(F)cccc1-n1cccn1 (stereo not drawn) — higher, -3.07%
- CCN1CCn2nc(CCC(=O)N3CCCC3)cc2C1 — higher, -4.63%
- CC(=O)NS(=O)(=O)c1ccc(F)c(C(F)(F)F)c1 — higher, -6.35%
- CN(CCn1cccn1)S(=O)(=O)c1ccc(C#N)cc1 — higher, -8.98%
- Cc1cc(C)nc(NC2CCN(CCOC(C)C)CC2)n1 — higher, 1.5%
- N#Cc1ccc(N2CCCC2Cn2cccn2)nc1 (stereo not drawn) — higher, -8.46%
- CCCc1nnc2sc(C3CCN(CC)CC3)nn12 — lower, -13.4%
- CCC(NC(=O)C1CCN(S(C)(=O)=O)CC1)c1ccc(OC)cc1 (stereo not drawn) — higher, -4.59%
- CSC(C)(C)CNC(=O)NC(c1nnc2n1CCC2)C(C)C (stereo not drawn) — higher, -3.59%
- O=C(CNc1cc(-c2ccccc2)nc2ccnn12)NC1CC1 — higher, -0.964%
- CC(NC(=O)C1CC1)c1cc(O)nc(-c2cccnc2)n1 (stereo not drawn) — higher, 26.9%
- O=C(CCc1cc2n(n1)CCCN(C(=O)c1ccccn1)C2)NC1CC1 — higher, -4.46%
- Cc1nc(COC[C@H]2CCC[C@@]23CN(C(C)C)CCO3)cs1 — higher, -6.88%
- Cc1ccccc1C(=O)N1CCCn2nnc(Cn3cccn3)c2C1 — lower, -9.23%
- CC(C)Nc1ccnc(-c2ccnc3c2ccn3C)n1 — lower, -9.28%
- O=C(CN1CCC(N2CCNC2=O)CC1)NCC(F)(F)F — lower, -11.3%
- O=C(Nc1ccc(-n2ccnc2)c(F)c1)C1CCN(C(=O)C2CC2)CC1 — higher, -1.97%
- COc1cccc(CN(C)Cc2c(C)noc2C)c1OC — higher, -3.33%
- CC(NC(=O)NCc1cccnc1N(C)C)c1cccs1 (stereo not drawn) — lower, -23.6%
- O=C(Cc1ccc(O)c(Cl)c1)N1CCN(CC2CC2)[C@@H]2CS(=O)(=O)C[C@@H]21 — higher, 17.4%
- COc1cc(S(=O)(=O)N2CCCc3ccccc32)cc(C(=O)O)c1OC — higher, 5.62%
- O=C(NS(=O)(=O)c1cccc(F)c1)c1ccccc1F — higher, 13.1%
- CN1CC(Oc2ccc(Cl)cc2)=NC(SCC(=O)c2ccccc2)=N1 — higher, 14.8%
- O=C(NCC(=O)N1CCCCC1)c1sccc1C1CC1 — higher, 7.84%
- Cn1cnc(-c2nc(C(=O)NCCN3CCOCC3)c3ccccn23)c1 — higher, -2.81%
- COc1c(CNC2CCOc3ccccc32)c(C)nn1C (stereo not drawn) — higher, -4.19%
- COCCN1CCc2ncnc(OC(C)C)c2CC1 — lower, -9.41%
- Cn1cc(CN2CCC3(CC2)CCN(C(=O)c2cscn2)CC3)cn1 — higher, -1.71%
- CC(C(=O)NCc1ccc(N2CCNC(=O)C2)cc1)n1cncn1 (stereo not drawn) — higher, 4.32%
- COCc1nc(CNC2CCCC(C)(C)C2)no1 (stereo not drawn) — higher, -9.03%
- O=C(NCC(=O)N1CCCC(c2ccccc2)CC1)c1ccoc1 (stereo not drawn) — higher, 1.06%
- CC(C)NC(=O)CN(C)C1CCN(c2ccc(C#N)cn2)CC1 — higher, 0.463%
- Cc1n[nH]c(C)c1NC(=O)c1cccc(OCC(F)(F)F)n1 — lower, -10.8%
- CC(Cn1cccn1)NCCCc1nc(-c2cccs2)no1 (stereo not drawn) — higher, 1.95%
- Cc1noc(C)c1CN1C[C@@H]2OCCN(Cc3cnn(C)c3)[C@@H]2C1 — lower, -21.6%
- CCc1cc(N2CCNCC2)n2nc(C)c(C)c2n1 — higher, -3.36%
- CCNC(=O)COc1ccc(C(=O)NC(C)CCc2ccco2)cc1 (stereo not drawn) — higher, 2.41%
- COc1cccc(C2=CCN(CCN3CCOC3=O)CC2)c1 — higher, 11.1%
- CCOc1ccccc1CNC(=O)N(CC)C(C)c1cccnc1 (stereo not drawn) — higher, -6.76%
- O=C(c1ccccc1)N1CCO[C@@H]2CN(Cc3ccc[nH]3)C[C@@H]2C1 — higher, 1.61%
